Consider 22 compounds from patent US20230406860A1, “HETEROCYCLIC SPIRO COMPOUNDS AND METHODS OF USE” (AMGEN INC., priority 2020, published 2023).

Test [1] deals with extracellular signal-regulated kinase (ERK). Conditions: preclinical studies; cited from earlier work.
For test [2], the target named is GDP-bound KRAS protein (aa 1-169), containing both G12C and C118A amino acid substitutions (Homo sapiens, UniProt P01116, C118A/G12C). As to the kind of experiment: Coupled nucleotide exchange assay (SOS-mediated, AlphaScreen). Conditions: 2 h compound pre-incubation; read-out: Avg 2 h Coupled exchange IC50. It is filed as biochemical. On the procedure:
Coupled Nucleotide Exchange Assay:
For all subsequent steps, DTT was added to the reaction buffer at a final concentration of 1 mM. […] The assay plates were then read on a plate reader measuring luminescence signal. Signal intensity of compound-containing wells were normalized to DMSO control, and data were analyzed using a 4-parameter logistic model to calculate IC50 values.

In test [3] the test system is A549 (human lung carcinoma) cells. The experiment in a line: Cell viability assay (CellTiter-Glo), A549. It counts as cell-based. Conditions: 72 h. On the procedure: (§1) MIA PaCa-2 (human pancreatic carcinoma; ATCC CRL-1420) or A549 (human lung carcinoma; ATCC CCL-185) cells were cultured in RPMI 1640 medium containing 10% fetal bovine serum and 1× penicillin/streptomycin/L-glutamine. Cells were seeded in 384-well plates at a density of 1.67E+04 cells/mL and incubated at 37° C., 5% CO2, overnight. Serially-diluted compound or DMSO was added to the cells, and plates were incubated at 37° C., 5% CO2 for 72 h. Cell viability was measured using a CellTiter-Glo® Luminescent Cell Viability Assay kit (Promega) according to the manufacturer's protocol. The luminescence signal of treated samples was normalized to DMSO control, and data were analyzed using a 4-parameter logistic model to calculate IC50 values.
For orientation: ATP-based viability assays read luminescence as a measure of living cells.

The test system of test [4] is MIA PaCa-2 (human pancreatic carcinoma) cells. As to the kind of experiment: Cell viability assay (CellTiter-Glo), MIA PaCa-2. Conditions: 72 h. It is filed as cell-based. On the procedure:
as §1

Chain of GDP-bound KRAS protein (aa 1-169), containing both G12C and C118A amino acid substitutions (P01116 1-169 isoform P01116-2 G12C/C118A): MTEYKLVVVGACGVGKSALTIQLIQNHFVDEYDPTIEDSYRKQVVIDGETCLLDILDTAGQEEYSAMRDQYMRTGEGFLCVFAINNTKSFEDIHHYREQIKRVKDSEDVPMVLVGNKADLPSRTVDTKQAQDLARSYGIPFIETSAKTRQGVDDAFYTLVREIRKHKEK

As to `C=CC(=O)N1CCN(c2nc(=O)n(-c3c(C)ccnc3C(C)C)c3nc(-c4c(O)cccc4F)c(F)cc23)[C@@H](C)C1` [AMG 510], in test [1], the “inhibition of ERK phosphorylation” value is given as “inhibited nearly all detectable phosphorylation”.

As to `C=CC(=O)N1CC2(CCN(c3nc(N[C@H](CC(=O)NC)CC(C)C)c4ccncc4n3)C2)C1` [Example 1-56], the IC50 (in general, the concentration that inhibits the measured activity by half) in test [2] was 4.84 µM; in test [3], above 25 µM; in test [4], above 5 µM.

In the case of `C=CC(=O)N1CC2(CCN(c3nc4c(c(N[C@H](CC(=O)NC)c5cccc(C#N)c5)n3)CCCC4)C2)C1` (single isomer, unassigned) [Example 1-21-2], the IC50 is 129.95 µM in test [2], above 25 µM in test [3] and 14 µM in test [4].

For `C=CC(=O)N1CC2(CCN(c3nc4c(c(N[C@H](Cc5nnc(C)s5)CC(C)C)n3)CCC(C)(C)C4)C2)C1` [Example 1-51, 1-(6-(7,7-dimethyl-4-(((2S)-4-methyl-1-(5-methyl-1,3,4-thiadiazol-2-yl)-2-pentanyl)amino)-5,6,7,8-tetrahydro-2-quinazolinyl)-2,6-diazaspiro[3.4]octan-2-yl)-2-propen-1-one], the IC50 was 0.05 µM in test [2], above 5 µM in test [3] and 3.54 µM in test [4].

`C=CC(=O)N1CC2(CCN(c3nc(N[C@H](CC(=O)NC)CC(C)C)c4ncn(C)c4n3)C2)C1` [Example 1-17, (3S)-N,5-dimethyl-3-((9-methyl-2-(2-(2-propenoyl)-2,6-diazaspiro[3.4]octan-6-yl)-9H-purin-6-yl)amino)hexanamide]: the values for the IC50 in test [2], in test [3] and in test [4] were 8.79 µM, above 25 µM and 2.46 µM, respectively.

As for `C=CC(=O)N1CC2(C1)CN(c1nc3c(c(N[C@H](CC(=O)NC)CC(C)C)n1)CCC(C)C3)CC2F` (stereo partly drawn) [Example 1-28, (3S)-3-((2-(8-fluoro-2-(2-propenoyl)-2,6-diazaspiro[3.4]octan-6-yl)-7-methyl-5,6,7,8-tetrahydro-4-quinazolinyl)amino)-N,5-dimethylhexanamide], the IC50 in test [2] was 0.196 µM; in test [3], above 5 µM; in test [4], 0.189 µM.

For `C=CC(=O)N1CC2(C1)CN(c1nc(N[C@H](CC(=O)NC)CC(C)C)c3ccccc3n1)CC2F` (stereo partly drawn) [Example 1-27, (3S)-3-((2-(8-fluoro-2-(2-propenoyl)-2,6-diazaspiro[3.4]octan-6-yl)-4-quinazolinyl)amino)-N,5-dimethylhexanamide], the IC50 in test [2] was 3.49 µM; in test [3] it was above 5 µM; in test [4], above 5 µM.

As to `C=CC(=O)N1CC2(CCN(c3nc(N[C@H](CC(=O)NC)CC(C)C)c4ncc(OC)cc4n3)C2)C1` [Example 1-42, (3S)-3-((7-methoxy-2-(2-(2-propenoyl)-2,6-diazaspiro[3.4]octan-6-yl)pyrido[3,2-d]pyrimidin-4-yl)amino)-N,5-dimethylhexanamide], the IC50 was 0.022 µM in test [2], above 5 µM in test [3] and 0.296 µM in test [4].

With `C=CC(=O)N1CC2(C1)CN(c1nc3c(c(N[C@H](CC(=O)NC)CC(C)C)n1)CCC(C)C3)CC2(F)F` (stereo partly drawn) [Example 1-2, (3S)-3-((2-(8,8-difluoro-2-(2-propenoyl)-2,6-diazaspiro[3.4]octan-6-yl)-7-methyl-5,6,7,8-tetrahydro-4-quinazolinyl)amino)-N,5-dimethylhexanamide], the IC50 in test [2] turned out to be 0.019 µM; in test [3], 15.1 µM; in test [4], 0.047 µM.

Turning to `C=CC(=O)N1CC2(CCN(c3nc(N[C@H](CC(=O)NC)CC(C)C)c4ncc(C5CC5)cc4n3)C2)C1` [Example 1-38, (3S)-3-((7-cyclopropyl-2-(2-(2-propenoyl)-2,6-diazaspiro[3.4]octan-6-yl)pyrido[3,2-d]pyrimidin-4-yl)amino)-N,5-dimethylhexanamide], the results for the IC50 in test [2], in test [3] and in test [4] were 0.06 µM, above 5 µM and 0.959 µM, respectively.

`C=C(C(=O)N1CC2(CCN(c3nc(N[C@H](CC(=O)NC)CC(C)C)c4ccc(C)cc4n3)C2)C1)C(F)(F)F` [Example 1-58, (3S)-N,5-dimethyl-3-((7-methyl-2-(2-(2-(trifluoromethyl)-2-propenoyl)-2,6-diazaspiro[3.4]octan-6-yl)-4-quinazolinyl)amino)hexanamide]: the IC50 turned out to be 0.403 µM in test [2], 13.5 µM in test [3] and 1.84 µM in test [4].

Take `C=CC(=O)N1CC2(CCN(c3nc4c(c(N[C@H](CC(=O)NC)CC(C)C)n3)CCCC4)C2)C1` [Example 1-1, (S)-3-((2-(2-acryloyl-2,6-diazaspiro[3.4]octan-6-yl)-5,6,7,8-tetrahydroquinazolin-4-yl)amino)-N,5-dimethylhexanamide]: the IC50 in test [2] is 0.702 µM; in test [3], above 25 µM; in test [4] it was 0.887 µM.

For `C=CC(=O)N1CC2(CCN(c3nc(N[C@H](CC(=O)NC)CC(C)C)c4ccc(C(C)C)cc4n3)C2)C1` [Example 1-20, (3S)-N,5-dimethyl-3-((7-(2-propanyl)-2-(2-(2-propenoyl)-2,6-diazaspiro[3.4]octan-6-yl)-4-quinazolinyl)amino)hexanamide], the IC50 in test [2] was 0.084 µM; in test [3] it was 21.6 µM; in test [4] it was 0.075 µM.

For the compound `C=CC(=O)N1CC2(CCN(c3nc(N[C@H](CC(=O)NC)CC(C)C)c4c(n3)[C@@H](C)CCC4)C2)C1` [Example 1-15, (3S)-N,5-dimethyl-3-(((8S)-8-methyl-2-(2-(2-propenoyl)-2,6-diazaspiro[3.4]octan-6-yl)-5,6,7,8-tetrahydro-4-quinazolinyl)amino)hexanamide], the IC50 in test [2] is 4.42 µM; in test [3], above 5 µM; in test [4] it was 2.26 µM.

For the compound `C=CC(=O)N1CC2(CCN(c3nc4c(c(N[C@H](Cc5nccs5)CC(C)C)n3)CCC(C)(C)C4)C2)C1` [Example 1-43, 1-(6-(7,7-dimethyl-4-(((2S)-4-methyl-1-(1,3-thiazol-2-yl)-2-pentanyl)amino)-5,6,7,8-tetrahydro-2-quinazolinyl)-2,6-diazaspiro[3.4]octan-2-yl)-2-propen-1-one], the IC50 in test [2] came to 0.121 µM; in test [3] it was 13.5 µM; in test [4], 0.205 µM.

Regarding `C=CC(=O)N1CC2(CCN(c3nc4c(c(N[C@H](CC(=O)NC)CC(C)C)n3)CCC(C)C4)C2)C1` (stereo partly drawn) [Example 1-3, (3S)-N,5-dimethyl-3-((7-methyl-2-(2-(2-propenoyl)-2,6-diazaspiro[3.4]octan-6-yl)-5,6,7,8-tetrahydro-4-quinazolinyl)amino)hexanamide], the results for the IC50 in test [2], in test [3] and in test [4] were 0.216 µM, 32.6 µM and 0.217 µM, respectively.

For the compound `C=CC(=O)N1CC2(CCN(c3nc4c(c(N[C@H](CC(=O)NC)CC(C)C)n3)CCC4)C2)C1` [Example 1-4, (3S)-N,5-dimethyl-3-((2-(2-(2-propenoyl)-2,6-diazaspiro[3.4]octan-6-yl)-6,7-dihydro-5H-cyclopenta[d]pyrimidin-4-yl)amino)hexanamide], the IC50 in test [2] was 2.37 µM; in test [3] it was above 5 µM; in test [4], 2.59 µM.

Regarding `C=CC(=O)N1CC2(CCN(c3nc(N[C@H](CC(=O)NC)CC(C)C)c4ccccc4n3)C2)C1` [Example 1-5, (3S)-N,5-dimethyl-3-((2-(2-(2-propenoyl)-2,6-diazaspiro[3.4]octan-6-yl)-4-quinazolinyl)amino)hexanamide], the IC50 was 1.1 µM in test [2], 18.4 µM in test [3] and 1.23 µM in test [4].

With `C=CC(=O)N1CC2(CCN(c3nc(N[C@H](CC(=O)NC)CC(C)C)c4ccc(C(F)(F)F)cc4n3)C2)C1` [Example 1-35, (3S)-N,5-dimethyl-3-((2-(2-(2-propenoyl)-2,6-diazaspiro[3.4]octan-6-yl)-7-(trifluoromethyl)-4-quinazolinyl)amino)hexanamide], the half-maximal inhibitory concentration (IC50) in test [2] worked out at 0.142 µM; in test [3], 10.5 µM; in test [4] it was 0.179 µM.

With `C=CC(=O)N1CC2(CCN(c3nc4c(c(N[C@H](CC(=O)NC)CC(C)C)n3)CC(C)CC4)C2)C1` (stereo partly drawn) [Example 1-33, (3S)-N,5-dimethyl-3-((6-methyl-2-(2-(2-propenoyl)-2,6-diazaspiro[3.4]octan-6-yl)-5,6,7,8-tetrahydro-4-quinazolinyl)amino)hexanamide], the IC50 is 0.446 µM in test [2], above 25 µM in test [3] and 0.35 µM in test [4].

As for `C=CC(=O)N1CC2(CCN(c3nc4c(c(N[C@H](Cc5nnc[nH]5)CC(C)C)n3)CCCC4)C2)C1` [Example 1-19, 1-(6-(4-(((2S)-4-methyl-1-(4H-1,2,4-triazol-3-yl)-2-pentanyl)amino)-5,6,7,8-tetrahydro-2-quinazolinyl)-2,6-diazaspiro[3.4]octan-2-yl)-2-propen-1-one], the figures for the IC50 in test [2], in test [3] and in test [4] were 4.17 µM, above 5 µM and above 5 µM, respectively.

For `C=CC(=O)N1CC2(CCN(c3nc(N[C@H](CC(=O)NC)CC(C)C)c4ccc(-c5nccs5)cc4n3)C2)C1` [Example 1-59, (3S)-N,5-dimethyl-3-((2-(2-(2-propenoyl)-2,6-diazaspiro[3.4]octan-6-yl)-7-(1,3-thiazol-2-yl)-4-quinazolinyl)amino)hexanamide], the values for the IC50 in test [2], in test [3] and in test [4] were 0.01 µM, 7.86 µM and 0.016 µM, respectively.
